Measurements reported in patent US10293009B2, “Pharmaceutical or food composition comprising Oldenlandia brachypoda, Spergularia marina, Disporum smilacinum, Persicaria posumbu, or Geum aleppicum” (KOREA FOOD RESEARCH INSTITUTE, priority 2012, dated 2019).

Columns and labels:
STC-1 cells [1] = assay: Membrane potential change in STC-1 cells; assay type: cell-based
STC-1 cells [2] = assay: CCK secretion in STC-1 cells (EIA); assay type: cell-based; settings: 60 minutes
Method: STC-1 cells were cultured in Dulbecco's modified Eagle's medium (DMEM) containing 10% fetal bovine serum (FBS) and 1% penicillin-streptomycin in an incubator maintained at 37° C. and 5% CO2. […] An enzyme immunoassay (EIA) kit (Phoenix Pharmaceuticals Inc., Belmont Calif.) was used.

STC-1 cells [3] = assay: CCK secretion in STC-1 cells after inhibitor pretreatment (RR, HC-030031, TPPO, U-73122); assay type: cell-based; settings: 0.1 mM
Method: The cultured cells were inoculated onto a 24-well plate at a concentration of 2×10^5 cells/well and incubated under the condition of 37° C. and 5% CO2. 72 hours later, the cells were washed 2 times with HEPES buffer (4.5 mM KCl, 1.2 mM CaCl2, 1.2 mM MgCl2, 10 mM glucose, 140 mM NaCl, 20 mM HEPES-Tris, pH 7.4) and then incubated at 37° C. for 60 minutes after adding the test substance to the HEPES buffer. After the incubation, the medium was centrifuged at 10000 rpm for 10 minutes and the resultant supernatant was stored at −70° C. for use in analysis. An enzyme immunoassay (EIA) kit (Phoenix Pharmaceuticals Inc., Belmont Calif.) was used.
The STC-1 cells were pretreated for 30 minutes with 100 μM ruthenium red (RR) or with 50 μM HC-030031. After adding 50 μg/mL of the extract, the cells were incubated at 37° C. for 60 minutes.
The STC-1 cells were pretreated for 30 minutes with 100 μM ruthenium red (RR) or with 50 μM HC-030031. After adding 500 μg/mL of the extract, the cells were incubated at 37° C. for 60 minutes.
The STC-1 cells were pretreated for 30 minutes with 400 μM TPPO or with 20 μM U-73122.
After adding 500 μg/mL of the extract, the cells were incubated at 37° C. for 60 minutes.
The STC-1 cells were pretreated for 30 minutes with 100 μM ruthenium red (RR) or with 50 μM HC-030031. Then, the cells were incubated at 37° C. for 60 minutes after adding 500 μg/mL of the extract.
Then, the cells were incubated at 37° C. for 60 minutes after adding 500 μg/mL of the extract.

STC-1 cells [4] = assay: Change in Ca2+ level in STC-1 cells; assay type: cell-based
Method: (§1) The cells were inoculated onto a poly-D-Lysine-coated black 96-well clear-bottom plate (Thermo) at a concentration of 8.0×10^4 cells/well and incubated under the condition of 37° C. and 5% CO2. 72 hours later, the cells were incubated at 37° C. for 60 minutes using the Calcium-5 assay kit (Molecular Devices) and the change in Ca^2+ level was measured using Flexstation III. The change in Ca^2+ level was monitored for about 120 seconds at fluorescence wavelengths of 488 nm (ex) and 525 nm (em) and for 2 seconds after injecting the compound for 20 seconds.

STC-1 cells [5] = assay: Change in Ca2+ level in STC-1 cells after inhibitor pretreatment (RR, HC-030031, TPPO, U-73122); assay type: cell-based; settings: 0.1 mM
Method: as §1
The STC-1 cells were pretreated for 60 minutes with 100 μM ruthenium red (RR) or with 50 μM HC-030031. Then, the cells were treated with 1 mg/mL of the extract.
The STC-1 cells were pretreated for 60 minutes with 400 μM TPPO or with 20 μM U-73122.
Then, the cells were treated with 1 mg/mL of the extract.
The STC-1 cells were pretreated for 60 minutes with 100 μM ruthenium red or with 50 μM HC-030031. Then, the cells were treated with 1 mg/mL of the extract.
The STC-1 cells were pretreated for 60 minutes with 400 μM TPPO or with 20 μM U-73122. Then, the cells were treated with 1 mg/mL of the extract.

RIN14B cells [6] = assay: 5-HT secretion in RIN14B cells (Serotonin EIA); assay type: cell-based; settings: 300 μM, 60 minutes
Method: RIN14B cells were cultured in RPMI medium 1640 containing 10% fetal bovine serum (FBS) and 1% penicillin-streptomycin in an incubator maintained at 37° C. and 5% CO2.
(§2) The cultured cells were inoculated onto a 24-well plate at a concentration of 2×10^5 cells/well and incubated under the condition of 37° C. and 5% CO2. 72 hours later, the cells were washed 2 times with 5-HT assay buffer (HBSS, 0.1% BSA, 1.25 mM CaCl2, 2 μM fluoxetine, pH 7.4) and then incubated at 37° C. for 60 minutes after adding the test substance to the 5-HT assay buffer. After the incubation, the medium was centrifuged at 10,000 rpm for 10 minutes and the resultant supernatant was stored at −70° C. for use in analysis. A Serotonin (EIA) kit (Enzo Life Sciences) was used.

RIN14B cells [7] = assay: 5-HT secretion in RIN14B cells after inhibitor pretreatment (RR, HC-030031); assay type: cell-based; settings: 300 μM
Method: as §2
The RIN14B cells were pretreated for 30 minutes with 100 μM ruthenium red (RR) or with 50 μM HC-030031. […]

RIN14B cells [8] = assay: Change in Ca2+ level in RIN14B cells; assay type: cell-based
Method: (§3) The cells were inoculated onto a black 96-well clear-bottom plate (Corning) at a concentration of 5.0×10^4 cells/well and incubated under the condition of 37° C. and 5% CO2. 48 hours later, the cells were incubated at 37° C. for 60 minutes using the Calcium-5 assay kit (Molecular Devices) and the change in Ca^2+ level was measured using Flexstation III. The change in Ca^2+ level was monitored for about 120 seconds at fluorescence wavelengths of 488 nm (ex) and 525 nm (em) and for 2 seconds after injecting the compound for 20 seconds.

RIN14B cells [9] = assay: Change in Ca2+ level in RIN14B cells after inhibitor pretreatment (RR, HC-030031); assay type: cell-based; settings: 300 μM
Method: as §3
The RIN14B cells were pretreated for 60 minutes with 100 μM ruthenium red (RR) or with 50 μM HC-030031. […]

NCI-H716 cells = assay: Intracellular cAMP in NCI-H716 cells (EIA); assay type: cell-based, Human; settings: 20 μM
Method: The NCI-H716 cells were plated onto a 24-well culture plate at a concentration of 1×10^6 cells/mL and cultured for 3 days. On the day of the experiment, the cells were incubated with the sample in KRB buffer at 37° C. using a 5% CO2 incubator. After the incubation, the medium was removed and the cells were washed 3 times with KRB buffer. They were then incubated at 150 rpm at room temperature for 20 minutes after adding 0.5 mL of 0.1 N HCl. The incubated cells were then centrifuged at 1000 g for 10 minutes and the supernatant was analyzed by an enzyme immunoassay (EIA) using the cyclic AMP kit.

GPR119 = biological target: T1, GPR119 (Homo sapiens, UniProt Q8TDV5); assay: GLP-1 secretion in NCI-H716 cells treated with GPR119 siRNA; assay type: cell-based
T1 construct: The transfection of the cells with GPR119 siRNA leads to knockdown of the GPR119 gene; endogenous in cells; host or cells: NCI-H716 cells
T1 sequence (Q8TDV5 1-335): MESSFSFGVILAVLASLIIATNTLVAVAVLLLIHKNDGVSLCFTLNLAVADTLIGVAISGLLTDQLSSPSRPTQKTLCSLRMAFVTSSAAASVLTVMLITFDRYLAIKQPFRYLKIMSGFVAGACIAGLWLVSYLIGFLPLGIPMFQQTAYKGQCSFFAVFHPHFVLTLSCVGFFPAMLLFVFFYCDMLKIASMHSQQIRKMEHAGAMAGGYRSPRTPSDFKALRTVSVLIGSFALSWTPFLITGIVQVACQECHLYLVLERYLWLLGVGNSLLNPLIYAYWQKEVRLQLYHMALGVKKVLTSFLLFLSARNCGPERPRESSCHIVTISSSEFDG
Method: The NCI-H716 cells were cultured on a 96-well plate for 3 days to a concentration of 2×10^5 cells/mL. On the day of the experiment, the cells were washed with phosphate-buffered saline (PBS) and incubated at 37° C. for 1 hour in Krebs-Ringer bicarbonate buffer (KRB, 128.8 mmol/L NaCl, 4.8 mmol/L KCl, 1.2 mmol/L KH2PO4, 1.2 mmol/L MgSO4, 2.5 mmol/L CaCl2, 5 mmol/L NaHCO3, 10 mmol/L HEPES, 0.2% BSA, pH 7.4) to which the sample was added. Then, for GLP-1 assay, the supernatant (100 μL) was taken and analyzed using an active GLP-1 ELISA kit (EGLP-35K, Millipore). The concentration of GLP-1 was calculated GLP-1 standard (pmol/mL) and the result was expressed as fold of control by comparing the concentration of GLP-1 secreted by stimulation with the sample and the concentration of GLP-1 secreted by stimulation with a control substance.
siRNA sequence targeting human α-gustducin (GNAT3, accession no. NM 001102386, Dharmacon on-target SMARTpool siRNA reagent), GPR119 ([…]/GeneBank accession no. NM_176817) and non-target SMARTpool siRNA were purchased from Dharmacon (Lafayette, Colo.). The NCI-H716 cells were transfected with the siRNAs for 48 hours using the Neon™ transfection system (Invitrogen, Carlsbad, Calif.). Then, GLP-1 secretion and the concentrations of Ca^2+ and cAMP were measured.

[Cl-].[K+] [KCl]
Membrane potential change, ΔRFU (mean ± SEM) (STC-1 cells [1]; 0.1 mM): 17.01 ± 0.93 ΔRFU | Membrane potential change, ΔRFU (mean ± SEM) (STC-1 cells [1]; 1 mM): 35.08 ± 3.43 ΔRFU | Membrane potential change, ΔRFU (mean ± SEM) (STC-1 cells [1]; 10 mM): 270.08 ± 9.57 ΔRFU

C=CCN=C=S [AITC]
CCK secretion, Fold of control (mean ± S.E.M.) (STC-1 cells [2]; 0.1 mM): 21.57 ± 0.59 Fold of control | CCK secretion, Fold of control (mean ± S.E.M.) (STC-1 cells [2]; 1 mM): 21.99 ± 0.64 Fold of control | CCK secretion, Fold of control (mean ± S.E.M.) (STC-1 cells [2]; 10 mM): 25.59 ± 0.59 Fold of control | Inhibition (%) of CCK secretion (STC-1 cells [3]; HC-030031 50 μM): 52.58% | Inhibition (%) of CCK secretion (STC-1 cells [3]; RR 100 μM): 73.21% | CCK secretion, Fold of control (mean ± S.E.M.) (STC-1 cells [3]; inhibitor: Untreated): 22.56 ± 0.65 Fold of control | CCK secretion, Fold of control (mean ± S.E.M.) (STC-1 cells [3]; pretreated 50 μM HC-030031): 10.70 ± 0.92 Fold of control | CCK secretion, Fold of control (mean ± S.E.M.) (STC-1 cells [3]; pretreated 100 μM RR): 6.04 ± 0.73 Fold of control | Change in Ca^2+ level, ΔRFU (mean ± S.E.M.) (STC-1 cells [4]; 0.1 mM): 105.41 ± 2.12 ΔRFU | Change in Ca^2+ level, ΔRFU (mean ± S.E.M.) (STC-1 cells [4]; 1 mM): 151.04 ± 5.65 ΔRFU | Change in Ca^2+ level, ΔRFU (mean ± S.E.M.) (STC-1 cells [4]; 10 mM): 168.68 ± 5.79 ΔRFU | Inhibition (%) of Ca^2+ change (STC-1 cells [5]; HC-030031 50 μM): 83.50% | Inhibition (%) of Ca^2+ change (STC-1 cells [5]; RR 100 μM): 93.14% | Change in Ca^2+ level, ΔRFU (mean ± S.E.M.) (STC-1 cells [5]; inhibitor: Untreated): 400.52 ± 6.90 ΔRFU | Change in Ca^2+ level, ΔRFU (mean ± S.E.M.) (STC-1 cells [5]; pretreated 50 μM HC-030031): 66.07 ± 2.56 ΔRFU | Change in Ca^2+ level, ΔRFU (mean ± S.E.M.) (STC-1 cells [5]; pretreated 100 μM RR): 27.47 ± 1.77 ΔRFU | 5-HT secretion, Fold of control (mean ± S.E.M.) (RIN14B cells [6]): 8.11 ± 2.70 Fold of control | Inhibition (%) of 5-HT secretion (RIN14B cells [7]; HC-030031 50 μM): −11.27% | Inhibition (%) of 5-HT secretion (RIN14B cells [7]; RR 100 μM): 55.56% | 5-HT secretion, Fold of control (mean ± S.E.M.) (RIN14B cells [7]; inhibitor: Untreated): 8.11 ± 2.70 Fold of control | 5-HT secretion, Fold of control (mean ± S.E.M.) (RIN14B cells [7]; pretreated 50 μM HC-030031): 9.02 ± 6.37 Fold of control | 5-HT secretion, Fold of control (mean ± S.E.M.) (RIN14B cells [7]; pretreated 100 μM RR): 3.60 ± 1.80 Fold of control | Change in Ca^2+ level, ΔRFU (mean ± S.E.M.) (RIN14B cells [8]; 50 μM): 13.44 ± 1.78 ΔRFU | Change in Ca^2+ level, ΔRFU (mean ± S.E.M.) (RIN14B cells [8]; 300 μM): 19.78 ± 4.08 ΔRFU | Change in Ca^2+ level, ΔRFU (mean ± S.E.M.) (RIN14B cells [8]; 500 μM): 22.17 ± 3.65 ΔRFU | Inhibition (%) of Ca^2+ change (RIN14B cells [9]; HC-030031 50 μM): 70.31% | Inhibition (%) of Ca^2+ change (RIN14B cells [9]; RR 100 μM): 66.36% | Change in Ca^2+ level, ΔRFU (mean ± S.E.M.) (RIN14B cells [9]; inhibitor: Untreated): 13.42 ± 1.08 ΔRFU | Change in Ca^2+ level, ΔRFU (mean ± S.E.M.) (RIN14B cells [9]; pretreated 50 μM HC-030031): 3.98 ± 0.80 ΔRFU | Change in Ca^2+ level, ΔRFU (mean ± S.E.M.) (RIN14B cells [9]; pretreated 100 μM RR): 4.51 ± 1.40 ΔRFU

CCCCCCCC/C=C\CCCCCCCC(=O)NCCO [OEA (oleoylethanolamide), oleoylethanolamide]
cAMP (fold of control) (NCI-H716 cells): 6.813 ± 1.634 fold of control | GLP-1 secretion (fold of control) GPR119 siRNA (GPR119; 20 μM, GPR119 siRNA): 2.975 ± 0.241 fold of control | GLP-1 secretion (fold of control) Control siRNA (GPR119; 20 μM, control siRNA): 4.822 ± 0.358 fold of control | inhibition at 20 µM (GPR119; NCI-H716): 38.3%
